One assay addresses T1, Caspase-7 (Homo sapiens, UniProt P55210).
T1 sequence (P55210 whole entry): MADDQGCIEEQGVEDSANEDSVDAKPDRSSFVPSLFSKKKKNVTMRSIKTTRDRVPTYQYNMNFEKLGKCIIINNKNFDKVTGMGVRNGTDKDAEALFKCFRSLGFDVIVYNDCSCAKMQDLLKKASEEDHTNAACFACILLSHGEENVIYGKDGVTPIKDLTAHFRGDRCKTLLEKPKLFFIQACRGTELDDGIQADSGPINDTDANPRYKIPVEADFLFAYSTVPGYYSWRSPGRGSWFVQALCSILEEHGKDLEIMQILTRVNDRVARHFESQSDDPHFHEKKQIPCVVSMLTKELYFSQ
The assay can be described thus: Inhibition of human recombinant caspase-7 using Ac-DEVD-AMC as substrate assessed as accumulation of AMC preincubated for 10 mins followed by substrate addition measured after 10 mins by fluorescence assay.

In the next assay the target is T2, Caspase-3 (Homo sapiens, UniProt P42574).
T2 sequence (P42574 whole entry): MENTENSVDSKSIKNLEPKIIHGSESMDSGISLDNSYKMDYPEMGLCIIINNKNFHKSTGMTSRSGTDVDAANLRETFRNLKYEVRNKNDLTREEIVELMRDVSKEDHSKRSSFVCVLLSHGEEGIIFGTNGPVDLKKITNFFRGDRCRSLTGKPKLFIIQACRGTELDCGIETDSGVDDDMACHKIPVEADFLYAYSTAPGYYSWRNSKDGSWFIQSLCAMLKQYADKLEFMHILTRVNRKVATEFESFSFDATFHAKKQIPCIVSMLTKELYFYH
The assay can be described thus: Inhibition of human recombinant caspase-3 using Ac-DEVD-AMC as substrate assessed as accumulation of AMC preincubated for 10 mins followed by substrate addition measured after 10 mins by fluorescence assay.

Where only a bound is given, the exact number is not on record here.

On to `COC[C@@H]1CC[C@@H](COC)N1S(=O)(=O)c1ccc2c(c1)C(=O)C(=O)N2`, for which the concentration for half-maximal inhibition (IC50) at Caspase-7 and on Caspase-3 was over 500 µM in each case.

Consider `COC[C@@H]1C[C@H](C(F)(F)F)CN1S(=O)(=O)c1ccc2c(c1)C(=O)C(=O)N2`, for which, on Caspase-3, the 50% inhibitory concentration (IC50) came out at 101 µM.

For the molecule `COC[C@@H]1C[C@@H](OCCOCCOCCOCCO)CN1S(=O)(=O)c1ccc2c(c1)C(=O)C(=O)N2`, the IC50 at Caspase-7 and on Caspase-3 was over 500 µM each time.

As for `COC[C@H]1CC[C@@H](COC)N1S(=O)(=O)c1ccc2c(c1)C(=O)C(=O)N2`, the half-maximal inhibitory concentration (IC50) on Caspase-7 and on Caspase-3 was over 500 µM in each case.

In the case of `COC[C@@H]1C[C@@H](OC)CN1S(=O)(=O)c1ccc2c(c1)C(=O)C(=O)N2`, the IC50 at Caspase-7 and at Caspase-3 was over 500 µM each time.

In the case of `COC[C@@H]1C[C@H](OCCOCCOCCOCCO)CN1S(=O)(=O)c1ccc2c(c1)C(=O)C(=O)N2`, the IC50 on Caspase-7 and on Caspase-3 was over 500 µM throughout.

Turning to `COC[C@@H]1C[C@H](OC)CN1S(=O)(=O)c1ccc2c(c1)C(=O)C(=O)N2`, the IC50 at Caspase-7 and at Caspase-3 was over 500 µM throughout.

As to `COC[C@@H]1C[C@@H](C(F)(F)F)CN1S(=O)(=O)c1ccc2c(c1)C(=O)C(=O)N2`, the IC50 at Caspase-7 and at Caspase-3 was over 500 µM in each case.

Consider `CCCCN1C(=O)C(=O)c2cc(S(=O)(=O)N3C[C@@H](OCCOCCOCCOCCO)C[C@H]3COC)ccc21`, for which the IC50 on Caspase-7 and on Caspase-3 was over 500 µM throughout.

Broadly, the IC50 is the point on the concentration scale where inhibition reaches its midpoint.
